We go through 19 compounds from ChEMBL document CHEMBL1154989, “Towards the second generation of Boceprevir: Dithianes as an alternative P2 substituent for 2,2-dimethyl cycloproyl proline in HCV NS3 protease inhibitors” (Bioorg Med Chem Lett, 2010).

Data set [1] can be described thus: Inhibition of HCV NS3/4A serine protease by continuous spectrophotometric assay. The arrangement: species or system Hepacivirus hominis.
Data set [2] is described as follows: AUC in rat at 10 mg/kg, po. Type of data set: ADME, organism-based. The arrangement: dose 10 mg/kg, route oral. The note with it: plasma.
Data set [3] in a line: Selectivity for HCV NS3 serine protease over human neutrophil elastase.
The next data set has as its system Hepatitis C virus. Put plainly: Antiviral activity against HCV replicon expressing NS3-5 infected in HuH7 cells assessed as inhibition of viral replication after 3 days by ELISA. Type of data set: functional, organism-based, Hepacivirus hominis, Huh-7. Background: In antiviral work, replicon cells carry a viral genome segment that copies itself.

Structures are written as SMILES. The source made the active and inactive calls. The calls are words filed in the database; no cut-off is given here.

As a reminder, the Ki is the equilibrium dissociation constant of an inhibitor or competing ligand from its target. For orientation: AUC means the area under the concentration-time curve, a measure of exposure. In the case of `C=CCNC(=O)C(=O)C(CC1CC1)NC(=O)[C@@H]1CC2(CN1C(=O)[C@@H](NC(=O)NC1(CS(=O)(=O)C(C)(C)C)CCCCC1)C(C)(C)C)SCCCS2` (stereo not given in full), in data set [1], the Ki was 18 nM. This compound registered an AUC in data set [2] of 1.69 µM·h. Also, the Ratio in data set [3] amounted to 130.
In data set [1], `C=CCNC(=O)C(=O)C(CC1CC1)NC(=O)[C@@H]1CC2(CN1C(=O)[C@@H](NC(=O)N[C@@H](C(=O)OC1CC1)C(C)C)C(C)(C)C)SCCS2` (stereo not given in full) had a Ki of 84 nM. For the same compound, the Ratio in data set [3] turned out to be 40.
In data set [1], `C=CCNC(=O)C(=O)C(CC1CC1)NC(=O)[C@@H]1CC2(CN1C(=O)[C@@H](NC(=O)N[C@@H](CN1C(=O)CC(C)(C)CC1=O)C(C)(C)C)C1(C)CCCCC1)SCCS2` (stereo not given in full) gave a Ki of 18 nM. This compound also registered an AUC in data set [2] of 0.2 µM·h. In addition, in data set [3], the Ratio was found to be 200.
On to `C=CCNC(=O)C(=O)C(CCC)NC(=O)[C@@H]1CC2(CN1C(=O)[C@@H](NC(=O)NC1(CS(=O)(=O)C(C)(C)C)CCCCC1)C(C)(C)C)SCCS2` (stereo not given in full), for which the affinity in data set [1], expressed as Ki, was 11 nM. This compound had an AUC in data set [2] of 0.57 µM·h. Besides, in data set [3], the Ratio was determined as 50.
Taken in the same sequence, the figures for `C=CCNC(=O)C(=O)C(CCC)NC(=O)[C@@H]1CC2(CN1C(=O)[C@@H](NC(=O)N[C@@H](CN1C(=O)CC(C)(C)CC1=O)C(C)(C)C)C(C)(C)C)SCCS2` (stereo not given in full) were 5 nM, 0.06 µM·h and 630.
What is called EC90 is the concentration at which the effect reaches the 90% level. Compound `C=CCNC(=O)C(=O)C(CC1CC1)NC(=O)[C@@H]1CC2(CN1C(=O)[C@@H](NC(=O)NC(C)(C)C)C(C)(C)C)SCCS2` (stereo not given in full) had a Ki in data set [1] of 700 nM. Further, in data set [3], the Ratio result is “inactive”. For the same compound, the EC90 result with Hepatitis C virus (huh-7) was “Not Active”.
In data set [1], `C=CCNC(=O)C(=O)C(CC1CC1)NC(=O)[C@@H]1CC2(CN1C(=O)[C@@H](NC(=O)N[C@@H](CN1C(=O)CC(C)(C)CC1=O)C(C)(C)C)C(C)(C)C)SCCS2` (stereo not given in full) gave an inhibitory constant (Ki) of 21 nM. The Ratio in data set [3] is 290.
In turn, `C=CCNC(=O)C(=O)C(CC1CC1)NC(=O)[C@@H]1CC2(CN1C(=O)[C@@H](NC(=O)NC1(CS(=O)(=O)C(C)(C)C)CCCCC1)C(C)(C)C)SCCS2` (stereo not given in full) yielded an inhibition constant Ki in data set [1] of 33 nM. This compound also showed an AUC in data set [2] of 0.77 µM·h. The Ratio in data set [3] was found to be 40.
The compound `C=CCNC(=O)C(=O)C(CC1CC1)NC(=O)[C@@H]1CC2(CN1C(=O)[C@@H](NC(=O)N[C@@H](C(=O)OC1CC1)C(C)C)C1CCCCC1)SCCS2` (stereo not given in full) showed a Ki in data set [1] of 72 nM. Besides, the Ratio in data set [3] amounted to 15.
For `C=CCNC(=O)C(=O)C(CCC)NC(=O)[C@@H]1CC2(CN1C(=O)[C@@H](NC(=O)N[C@@H](CN1C(=O)CC(C)(C)CC1=O)C(C)(C)C)C1(C)CCCCC1)SCCS2` (stereo not given in full), affinity in data set [1] was put at a Ki of 6 nM. In addition, in data set [2], the AUC turned out to be 0.04 µM·h. Besides, the Ratio in data set [3] stood at 240.
The corresponding values for `C=CCNC(=O)C(=O)C(CCC)NC(=O)[C@@H]1CC2(CN1C(=O)[C@@H](NC(=O)NC1(CS(=O)(=O)C(C)(C)C)CCCCC1)C(C)(C)C)SCCCS2` (stereo not given in full) are 7 nM, 2.56 µM·h and 128.
Consider `CC(C)(C)NC(=O)N[C@H](C(=O)N1CC2(C[C@H]1C(=O)NC(CC1CC1)C(=O)C(N)=O)SCCS2)C1CCCCC1` (stereo not given in full), for which the Ki in data set [1] turned out to be 200 nM.
The same measure, in the same setting: for `CC(C)(C)NC(=O)N[C@H](C(=O)N1CC2(C[C@H]1C(=O)NC(CC1CC1)C(=O)C(N)=O)SCCS2)C(C)(C)C` (stereo not given in full) the value was 300 nM.
`C=CCNC(=O)C(=O)C(CCC)NC(=O)[C@@H]1CC2(CN1C(=O)[C@@H](NC(=O)NC1(CS(=O)(=O)C(C)(C)C)CCCCC1)C1(C)CCCCC1)SCCS2` (stereo not given in full): in data set [1], the Ki was 19 nM. This compound registered an AUC in data set [2] of 1.34 µM·h. Moreover, the Ratio in data set [3] was determined as 10.
As for `CC(C)(C)NC(=O)N[C@H](C(=O)N1CC2(C[C@H]1C(=O)NC(CC1CCC1)C(=O)C(N)=O)SCCS2)C1CCCCC1` (stereo not given in full), the affinity in data set [1], expressed as Ki, was 400 nM.
`CC(C)(C)NC(=O)N[C@H](C(=O)N1C[C@H]2[C@@H]([C@H]1C(=O)NC(CC1CCC1)C(=O)C(N)=O)C2(C)C)C(C)(C)C` (stereo not given in full) [BOCEPREVIR] had a Ki in data set [1] of 14 nM. Besides, in data set [2], the exposure (AUC) was 0.14 µM·h. In the data set on Hepatitis C virus (Hepatitis C virus, Huh-7, 72 h, read-out: EC90), the EC90 was found to be 350 nM.
On to `C=CCNC(=O)C(=O)C(CCC1CC1)NC(=O)[C@@H]1CC2(CN1C(=O)[C@@H](NC(=O)N[C@@H](CN1C(=O)CC(C)(C)CC1=O)C(C)(C)C)C(C)(C)C)SCCS2` (stereo not given in full), for which, in data set [1], affinity was put at a Ki of 13 nM. The Ratio in data set [3] was found to be 1700.
Regarding `CC(C)(C)NC(=O)N[C@H](C(=O)N1CC2(C[C@H]1C(=O)NC(CC1CCC1)C(=O)C(N)=O)SCCS2)C(C)(C)C` (stereo not given in full), the Ki in data set [1] was 600 nM.
For `C=CCNC(=O)C(=O)C(CCCC)NC(=O)[C@@H]1CC2(CN1C(=O)[C@@H](NC(=O)N[C@@H](CN1C(=O)CC(C)(C)CC1=O)C(C)(C)C)C(C)(C)C)SCCS2` (stereo not given in full), the Ki in data set [1] amounted to 13 nM. In addition, the AUC in data set [2] turned out to be 0.2 µM·h. The Ratio in data set [3] is 1500.
